Some test systems named below: MDA-MB-231; M14; MDA-N; U-251; HOP-92; HT-29; UACC-257; RPMI-8226; NCI-H23; HCC 2998; CAKI-1; UO-31; A549; OVCAR-3; TK-10; PC-3; NCI/ADR-RES; A498; T47D; SNB-19.
What all share (assay): DTP human tumour cell line panel, 48 h

Data on ten molecules can be found in ChEMBL document CHEMBL1201862, “PubChem BioAssay data set” (2004).

“And” between values parts separate entries of the source, which are not always exact repeats. Equal values may be shown once.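 All cell lines were grown in 96-well plates and treated with compound for 48 hours. The concentration for 50% growth inhibition is given as GI50.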 The source made the active and inactive calls. Cut-off read from the data, not from the text of the source: active = GI50 up to about 1.1 µM and inactive = higher.

One may read the GI50 as the concentration at which growth is held to half of that of the control. As to `COc1ccc(C2SCC(=O)N2NC2=NC(=O)CC(=O)N2)cc1` (stereo not given), the GI50 in the assay on MDA-MB-231, in the assay on M14, with MDA-N, with U-251, with HOP-92 and with HT-29 was > 100 µM (inactive) each time. Further, the GI50 in the assay with UACC-257, with RPMI-8226, in the assay with NCI-H23, in the assay on HCC 2998, in the assay with CAKI-1 and with UO-31 was > 100 µM (inactive) in each case. The GI50 in the assay on A549, with OVCAR-3, in the assay on TK-10, in the assay with PC-3, in the assay with NCI/ADR-RES and with A498 was > 100 µM (inactive) in each case. Moreover, in the assay with T47D, the GI50 is > 100 µM (inactive).
Consider `CC(C)(C)OC(=O)Cn1ncn(NC(=O)Cc2ccccc2)c1=S`, for which the GI50 in the assay with MDA-MB-231, with M14, in the assay with MDA-N, in the assay on U-251, in the assay with SNB-19 and with HOP-92 was > 10 µM (inactive) throughout. Moreover, the GI50 in the assay on HT-29, in the assay with UACC-257, with NCI-H23, in the assay on HCC 2998, in the assay on CAKI-1 and in the assay on UO-31 was > 10 µM (inactive) each time. Further, the GI50 in the assay on A549, with OVCAR-3, in the assay with TK-10, in the assay with PC-3, with NCI/ADR-RES and in the assay with A498 was > 10 µM (inactive) each time. Further, in the assay on T47D, the GI50 is > 10 µM (inactive).
As for `OC(Cc1cnnc2ccccc12)C(Cl)(Cl)Cl` (stereo not given), the GI50 in the assay on MDA-MB-231, in the assay on M14, in the assay with MDA-N, with U-251, with SNB-19 and in the assay with HOP-92 was > 10 µM (inactive) throughout. Besides, the GI50 in the assay on HT-29, with UACC-257, in the assay with RPMI-8226, with NCI-H23, in the assay on HCC 2998 and in the assay with CAKI-1 was > 10 µM (inactive) each time. For the same molecule, the GI50 in the assay on UO-31, in the assay with A549, in the assay on OVCAR-3, in the assay on TK-10, in the assay on PC-3 and in the assay on NCI/ADR-RES was > 10 µM (inactive) throughout. Moreover, the GI50 with A498 and in the assay with T47D was > 10 µM (inactive) in each case.
For `COc1ccc2c(c1)-c1c(c3cc(OC)ccc3n1CCN(C)C)CC2`, the GI50 in the assay on MDA-MB-231 is 13.9 µM (inactive); in the assay with M14 it was 13.7 µM (inactive); in the assay with MDA-N, 14.2 µM (inactive); in the assay with U-251 it was 11.2 µM (inactive); with HOP-92, 14.1 µM (inactive); in the assay on HT-29, 5.18 µM (inactive). In addition, the GI50 is 15.6 µM (inactive) in the assay on UACC-257; 12.1 µM (inactive) with RPMI-8226; 15.5 µM (inactive) in the assay with NCI-H23; 7.48 µM (inactive) in the assay with HCC 2998; 14.6 µM (inactive) in the assay on CAKI-1; 11.1 µM (inactive) in the assay with UO-31. For the same molecule, the GI50 is 15.4 µM (inactive) in the assay on A549; 14.3 µM (inactive) in the assay with OVCAR-3; 15.5 µM (inactive) in the assay on TK-10; 12.6 µM (inactive) with PC-3; 16.3 µM (inactive) in the assay on NCI/ADR-RES; 11.7 µM (inactive) in the assay on A498. Moreover, the GI50 in the assay on T47D was 17.6 µM (inactive).
For the molecule `Cc1cc(=O)[nH]c2cc(NC(=O)C(C)NC(=O)C(C)NC(=O)C(C)NC(=O)OC(C)(C)C)ccc12` (stereo not given), the GI50 with MDA-MB-231, in the assay on M14, in the assay with MDA-N, with U-251, in the assay with SNB-19 and in the assay on HOP-92 was > 15 µM (inactive) each time. For the same molecule, the GI50 in the assay on HT-29, in the assay on UACC-257, with NCI-H23, with HCC 2998, with CAKI-1 and with UO-31 was > 15 µM (inactive) throughout. In addition, the GI50 with A549, with TK-10, in the assay with PC-3, in the assay on NCI/ADR-RES, in the assay on A498 and in the assay with T47D was > 15 µM (inactive) in each case.
Take `CC(=O)OC1COC(n2c(N)c(C#N)c(-c3ccccc3)c(C#N)c2=S)C(OC(C)=O)C1OC(C)=O` (stereo not given): the GI50 in the assay with MDA-MB-231 is 50.9 µM (inactive) and 56.6 µM (inactive); with M14, 70.8 µM (inactive) and 64.1 µM (inactive); in the assay on MDA-N it was 26.6 µM (inactive) and 27.8 µM (inactive); in the assay with U-251, 48.8 µM (inactive) and 53.1 µM (inactive); in the assay on SNB-19, 75.9 µM (inactive); in the assay with HOP-92, 19.8 µM (inactive) and 14.8 µM (inactive). Also, the GI50 is 35.9 µM (inactive) and 43.1 µM (inactive) in the assay on HT-29; 57.7 µM (inactive) and 80.9 µM (inactive) in the assay with UACC-257; 24.5 µM (inactive) and 28.6 µM (inactive) in the assay with RPMI-8226; 25.6 µM (inactive) and 27.4 µM (inactive) in the assay on HCC 2998; 39.4 µM (inactive) and 40.7 µM (inactive) in the assay on CAKI-1; 23.1 µM (inactive) and 36.5 µM (inactive) with UO-31. Moreover, the GI50 in the assay on A549 was 71 µM (inactive) and 85.9 µM (inactive); with OVCAR-3, 28.9 µM (inactive) and 33.2 µM (inactive); in the assay with TK-10, 30.2 µM (inactive); with PC-3, 43.9 µM (inactive) and 40.1 µM (inactive); in the assay on NCI/ADR-RES, > 100 µM (inactive) and 71.6 µM (inactive); in the assay on A498, 24.8 µM (inactive) and 33.2 µM (inactive). Besides, in the assay on T47D, the GI50 was 33 µM (inactive) and 28.8 µM (inactive).
In the case of `N=c1c2c(=S)n(-c3ccccc3)c(=S)n(-c3ccccc3)c2nc(SCCN2CCCC2)n1-c1ccccc1`, the GI50 is 1.78 µM (inactive) in the assay with MDA-MB-231; 1.6 µM (inactive) in the assay with M14; 2.05 µM (inactive) with MDA-N; 2.52 µM (inactive) in the assay on U-251; 15.2 µM (inactive) in the assay on SNB-19; 1.71 µM (inactive) in the assay on HOP-92. Further, the GI50 in the assay with HT-29 was 1.81 µM (inactive); in the assay on UACC-257 it was 1.61 µM (inactive); with RPMI-8226, 0.341 µM (active); with NCI-H23, 2.9 µM (inactive); in the assay on HCC 2998 it was 1.31 µM (inactive); with CAKI-1, 1.56 µM (inactive). The GI50 in the assay with A549 is 2.39 µM (inactive); with OVCAR-3, 1.68 µM (inactive); with TK-10, 1.59 µM (inactive); in the assay on PC-3, 1.75 µM (inactive); in the assay with NCI/ADR-RES it was 6.44 µM (inactive); in the assay with A498 it was 11 µM (inactive). Besides, the GI50 in the assay with T47D was 2.8 µM (inactive).
Take `CSc1cc(Cl)c(C)cc1S(=O)(=O)NC(=O)NNc1ccc(F)cc1`: the GI50 in the assay with MDA-MB-231, in the assay with M14, in the assay with MDA-N, with U-251, in the assay with SNB-19 and in the assay with HT-29 was > 100 µM (inactive) each time. For the same molecule, the GI50 in the assay with HCC 2998 was 30 µM (inactive); with CAKI-1 it was > 100 µM (inactive); in the assay with A549, > 100 µM (inactive); in the assay on OVCAR-3 it was > 100 µM (inactive); in the assay on PC-3, > 100 µM (inactive); in the assay with NCI/ADR-RES it was > 100 µM (inactive). Besides, the GI50 in the assay on A498 and in the assay on T47D was > 100 µM (inactive) each time.
With `COc1cc([C@@H]2c3cc4c(cc3[C@@H](Nc3ccc([N+](=O)[O-])cc3C(=O)c3ccccc3)[C@H]3COC(=O)[C@H]23)OCO4)cc(OC)c1OC`, the GI50 in the assay with MDA-MB-231 was 0.548 µM (active); in the assay on M14, 0.281 µM (active); with MDA-N it was 0.0687 µM (active); with U-251 it was 0.354 µM (active); in the assay on SNB-19, 0.603 µM (active); in the assay with HOP-92, 8.05 µM (inactive). For the same molecule, the GI50 is 0.32 µM (active) with HT-29; 0.394 µM (active) in the assay with RPMI-8226; 0.428 µM (active) in the assay on NCI-H23; 0.436 µM (active) in the assay with HCC 2998; 0.381 µM (active) with CAKI-1; 0.23 µM (active) in the assay with UO-31. Also, the GI50 was 0.446 µM (active) in the assay with A549; 0.434 µM (active) in the assay on OVCAR-3; > 100 µM (inactive) in the assay with TK-10; 0.344 µM (active) in the assay on PC-3; 0.587 µM (active) in the assay with NCI/ADR-RES; 0.415 µM (active) in the assay on A498. Further, the GI50 in the assay on T47D is > 100 µM (inactive).
Regarding `O=c1cc(O)c2c(O)cc(O)cc2o1`, the GI50 in the assay on MDA-MB-231, with M14, in the assay on MDA-N, with U-251, in the assay on SNB-19 and in the assay with HOP-92 was > 100 µM (inactive) throughout. Besides, the GI50 in the assay with HT-29, in the assay with UACC-257, in the assay on RPMI-8226, with NCI-H23, in the assay on HCC 2998 and in the assay on CAKI-1 was > 100 µM (inactive) in each case. Moreover, the GI50 in the assay with A549, with OVCAR-3, in the assay on TK-10, with PC-3, with NCI/ADR-RES and in the assay with A498 was > 100 µM (inactive) in each case. The GI50 in the assay on T47D was > 100 µM (inactive).
